In US9828381B2, “Substituted pyrazolopyrimidines and method of use” (AbbVie Deutschland GmbH & Co. KG, priority 2015, dated 2017) one finds EC50 data, which are given here for 32 compounds.

SMILES strings stand for the structures.

Chain of GABA-B receptor (Q9Z0U4 17-960): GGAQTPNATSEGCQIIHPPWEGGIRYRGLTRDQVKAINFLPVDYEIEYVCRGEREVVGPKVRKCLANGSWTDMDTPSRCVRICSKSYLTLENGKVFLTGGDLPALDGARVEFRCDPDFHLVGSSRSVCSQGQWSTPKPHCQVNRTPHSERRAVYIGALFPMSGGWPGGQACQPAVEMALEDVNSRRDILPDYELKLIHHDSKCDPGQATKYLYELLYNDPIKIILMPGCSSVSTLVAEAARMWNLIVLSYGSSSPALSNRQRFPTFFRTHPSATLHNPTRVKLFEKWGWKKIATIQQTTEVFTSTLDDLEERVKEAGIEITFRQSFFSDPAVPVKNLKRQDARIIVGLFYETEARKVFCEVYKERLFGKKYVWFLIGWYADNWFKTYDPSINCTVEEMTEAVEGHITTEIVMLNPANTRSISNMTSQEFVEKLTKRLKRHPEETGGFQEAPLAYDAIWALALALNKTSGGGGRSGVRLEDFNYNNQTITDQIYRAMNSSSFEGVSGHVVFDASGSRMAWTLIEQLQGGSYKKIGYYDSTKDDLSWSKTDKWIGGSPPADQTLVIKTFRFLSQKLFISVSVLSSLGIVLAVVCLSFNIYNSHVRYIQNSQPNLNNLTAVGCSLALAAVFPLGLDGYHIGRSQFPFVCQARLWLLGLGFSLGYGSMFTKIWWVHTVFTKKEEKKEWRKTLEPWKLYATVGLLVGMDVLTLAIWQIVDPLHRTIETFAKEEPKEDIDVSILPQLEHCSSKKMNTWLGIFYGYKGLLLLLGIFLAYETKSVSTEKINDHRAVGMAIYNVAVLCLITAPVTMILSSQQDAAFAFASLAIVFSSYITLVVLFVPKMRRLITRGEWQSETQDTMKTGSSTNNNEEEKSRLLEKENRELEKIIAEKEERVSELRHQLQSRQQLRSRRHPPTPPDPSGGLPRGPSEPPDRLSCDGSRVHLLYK
Chain of GABA-B receptor (O88871 41-940): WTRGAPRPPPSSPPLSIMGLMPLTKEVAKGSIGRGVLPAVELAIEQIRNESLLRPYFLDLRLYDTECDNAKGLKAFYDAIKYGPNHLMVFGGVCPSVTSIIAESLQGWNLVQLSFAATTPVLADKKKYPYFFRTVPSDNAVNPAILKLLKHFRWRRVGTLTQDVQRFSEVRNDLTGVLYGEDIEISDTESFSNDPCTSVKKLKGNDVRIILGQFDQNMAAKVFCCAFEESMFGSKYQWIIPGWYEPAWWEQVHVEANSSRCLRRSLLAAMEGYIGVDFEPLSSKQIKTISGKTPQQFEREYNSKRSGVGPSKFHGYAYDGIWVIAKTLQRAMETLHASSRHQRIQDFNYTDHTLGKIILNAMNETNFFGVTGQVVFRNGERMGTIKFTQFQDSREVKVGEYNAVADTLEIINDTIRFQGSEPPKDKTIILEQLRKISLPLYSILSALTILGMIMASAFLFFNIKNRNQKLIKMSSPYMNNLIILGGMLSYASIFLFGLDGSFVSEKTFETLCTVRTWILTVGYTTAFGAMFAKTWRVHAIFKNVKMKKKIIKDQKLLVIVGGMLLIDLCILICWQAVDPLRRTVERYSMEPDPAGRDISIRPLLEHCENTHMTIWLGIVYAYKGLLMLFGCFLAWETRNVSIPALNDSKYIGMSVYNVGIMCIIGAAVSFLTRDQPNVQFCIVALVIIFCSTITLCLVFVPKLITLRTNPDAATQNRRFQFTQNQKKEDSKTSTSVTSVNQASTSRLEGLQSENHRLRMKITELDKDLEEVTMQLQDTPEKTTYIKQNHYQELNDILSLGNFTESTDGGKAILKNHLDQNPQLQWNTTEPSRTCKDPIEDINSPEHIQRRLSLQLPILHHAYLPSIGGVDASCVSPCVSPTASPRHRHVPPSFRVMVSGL

For this test, the target named is GABA-B receptor (Rattus norvegicus (Rat), UniProt O88871+Q9Z0U4). Kind of test: [35S]GTPgS binding assay, rat cortical membranes, in presence of EC25 GABA. It is filed as biochemical. The settings on record: rat brain cortex membranes; in presence of 1 μM GABA (EC25); positive allosteric modulation. The method, then:
Preparation of Rat Brain Membranes for Native Receptor Assays
Membranes from rat brain cortex were prepared as described in detail by Olpe et al. and stored at concentrations of 1.66 mg/mL protein at −80° C. until required. (Olpe, H.-R, et al. Eur J Pharmacol 1990; 187: 27-38).
[^35S] GTPgS Binding Assay
The composition of the assay mixtures [in a final volume of 200 μL in 96-well U-bottom plates (Greiner) was as follows: 50 mM Tris-HCl buffer, pH 7.7, 10 mM MgCl2, 0.2 mM EGTA, 2 mM CaCl2, 100 mM NaCl, 20 µM guanosine 5′-diphosphate (Sigma), 0.3 nM [^35S]GTPgS (1250 Ci/mmol (PerkinElmer)), and the test compounds at increasing concentrations (from 10 nM up to […]), […] of rat cortical membranes, and a concentration of […], that has been observed in previous experiments to correspond to the EC25, a concentration that gives 25% of the maximal response of GABA. The samples were incubated at room temperature for 60 minutes on a shaker. The incubation was stopped by rapid vacuum filtration over glass-fiber filter plates (UniFilter-96 well, GF/B membrane plates, PerkinElmer) using a 96-well plate harvester (TOMTEK© Harvester). The UniFilter plate was washed five times with ice-cold wash buffer (50 mM Tris-HCl buffer, pH 7.7, 10 mM MgCl2, and 100 mM NaCl. After filtration the plate was dried for 90 minutes at 55° C. The plates were closed on the bottom with black sealing membranes, and liquid scintillation cocktail (35 μL, Betaplate Scint, PerkinElmer) was added to each well. After sealing the top of the plate, an additional incubation step of 90 minutes at room temperature followed before measuring the plate. The amount of membrane-bound [^35S]GTPgS was measured using a 96-well plate reader (Microbeta®, PerkinElmer). Nonspecific binding was measured in the presence of unlabeled 10 μM of GTPgS (Millipore) and without GABA. Basal binding was measured in the absence of 1 μM GABA, and maximal binding was measured in the presence of GABA using 1 mM GABA concentrations.
Data analysis. The concentration-response curves of compounds of the present disclosure in the presence of EC25 of GABA-B receptor agonist were generated using the GraphPad Prism® program (GraphPad Software, San Diego, Calif.). Data was normalized using basal binding as 0% and maximal binding as 100%. The curves were fitted by nonlinear regression allowing determination of EC50 values from sigmoidal dose-response curves. Each curve was performed using triplicate sample per date point and 10 concentrations.
As for `Cc1cc(N[C@H]2C[C@@H](O)C2)n2nc(C(C)c3ccc(Cl)cc3)cc2n1` (relative stereo) [Example 2-18, cis-3-({2-[1-(4-chlorophenyl)ethyl]-5-methylpyrazolo[1,5-a]pyrimidin-7-yl}amino)cyclobutanol], the EC50 (usually the concentration giving half of the maximal effect) came to 0.499 µM. As for `Cc1cc(N[C@H]2C[C@H](O)C2)n2nc(C(C)c3ccc(Cl)cc3)cc2n1` (relative stereo) [Example 2-19, trans-3-({2-[1-(4-chlorophenyl)ethyl]-5-methylpyrazolo[1,5-a]pyrimidin-7-yl}amino)cyclobutanol], the figure is 1.31 µM. As for `Cc1cc(N2CCCCC2CCO)n2nc(Cc3ccc(Cl)cc3)cc2n1` (centres unmarked) [Example 1-1, 2-{1-[2-(4-chlorobenzyl)-5-methylpyrazolo[1,5-a]pyrimidin-7-yl]piperidin-2-yl}ethanol], the EC50 is 1.4 µM. For the compound `Cc1cc(N2CCCCC2CO)n2nc(Cc3ccc(Cl)cc3)cc2n1` (centres unmarked) [Example 1-2, {1-[2-(4-chlorobenzyl)-5-methylpyrazolo[1,5-a]pyrimidin-7-yl]piperidin-2-yl}methanol], the EC50 was found to be 1.66 µM. As for `Cc1cc(NC2(C)CC2)n2nc(Cc3ccc(Cl)cc3)cc2n1` [Example 1-3, 2-(4-chlorobenzyl)-5-methyl-N-(1-methylcyclopropyl)pyrazolo[1,5-a]pyrimidin-7-amine], the figure is 2.55 µM; as for `Cc1cc(N2CCCC(F)(F)C2)n2nc(Cc3ccc(Cl)cc3)cc2n1` [Example 1-4, 2-(4-chlorobenzyl)-7-(3,3-difluoropiperidin-1-yl)-5-methylpyrazolo[1,5-a]pyrimidine], 2.89 µM; as for `Cc1cc(N2CCC(O)C(F)(F)C2)n2nc(Cc3ccc(Cl)cc3)cc2n1` (centres unmarked) [Example 1-5, 1-[2-(4-chlorobenzyl)-5-methylpyrazolo[1,5-a]pyrimidin-7-yl]-3,3-difluoropiperidin-4-ol], 5.93 µM.

Turning to `Cc1cc(N2CCC[C@H](O)C2)n2nc(Cc3ccc(Cl)cc3)cc2n1` [Example 1-6, (3S)-1-[2-(4-chlorobenzyl)-5-methylpyrazolo[1,5-a]pyrimidin-7-yl]piperidin-3-ol], the EC50 came to 0.974 µM.

Turning to `Cc1cc(N2CCC[C@@H](O)C2)n2nc(Cc3ccc(Cl)cc3)cc2n1` [Example 1-7, (3R)-1-[2-(4-chlorobenzyl)-5-methylpyrazolo[1,5-a]pyrimidin-7-yl]piperidin-3-ol], the EC50 stood at 1.23 µM. As for `Cc1cc(N2CCC[C@H](CO)C2)n2nc(Cc3ccc(Cl)cc3)cc2n1` [Example 1-8, {(3S)-1-[2-(4-chlorobenzyl)-5-methylpyrazolo[1,5-a]pyrimidin-7-yl]piperidin-3-yl}methanol], the figure is 1.3 µM; as for `Cc1cc(N2CCCCC2)n2nc(Cc3ccc(Cl)cc3)cc2n1` [Example 1-9, 2-(4-chlorobenzyl)-5-methyl-7-(piperidin-1-yl)pyrazolo[1,5-a]pyrimidine], 2.57 µM; as for `Cc1cc(N2CCCCC2=O)n2nc(Cc3ccc(Cl)cc3)cc2n1` [Example 1-10, 1-[2-(4-chlorobenzyl)-5-methylpyrazolo[1,5-a]pyrimidin-7-yl]piperidin-2-one], over 10 µM. As for `CC(=O)N[C@@H]1CCN(c2cc(C)nc3cc(Cc4ccc(Cl)cc4)nn23)C1` [Example 1-11, N-{(3R)-1-[2-(4-chlorobenzyl)-5-methylpyrazolo[1,5-a]pyrimidin-7-yl]pyrrolidin-3-yl}acetamide], the figure is over 10 µM.

As for `Cc1cc(N2CCCC2)n2nc(Cc3ccc(Cl)cc3)cc2n1` [Example 1-12, 2-(4-chlorobenzyl)-5-methyl-7-(pyrrolidin-1-yl)pyrazolo[1,5-a]pyrimidine], the EC50 stood at 3.97 µM. Turning to `Cc1cc(N2CCC2)n2nc(Cc3ccc(Cl)cc3)cc2n1` [Example 1-13, 7-(azetidin-1-yl)-2-(4-chlorobenzyl)-5-methylpyrazolo[1,5-a]pyrimidine], the EC50 was over 10 µM. As for `Cc1cc(NC(C)(C)C)n2nc(Cc3ccc(Cl)cc3)cc2n1` [Example 1-14, N-tert-butyl-2-(4-chlorobenzyl)-5-methylpyrazolo[1,5-a]pyrimidin-7-amine], the figure is 1.03 µM; as for `Cc1cc(NC2(C(F)(F)F)CC2)n2nc(Cc3ccc(Cl)cc3)cc2n1` [Example 1-15, 2-(4-chlorobenzyl)-5-methyl-N-[1-(trifluoromethyl)cyclopropyl]pyrazolo[1,5-a]pyrimidin-7-amine], 1.18 µM.

For the compound `Cc1cc(NCC(F)(F)F)n2nc(Cc3ccc(Cl)cc3)cc2n1` [Example 1-16, 2-(4-chlorobenzyl)-5-methyl-N-(2,2,2-trifluoroethyl)pyrazolo[1,5-a]pyrimidin-7-amine], the EC50 is over 10 µM. As for `CC(=O)N[C@H]1CCN(c2cc(C)nc3cc(Cc4ccc(Cl)cc4)nn23)C1` [Example 1-17, N-{(3S)-1-[2-(4-chlorobenzyl)-5-methylpyrazolo[1,5-a]pyrimidin-7-yl]pyrrolidin-3-yl}acetamide], the figure is over 10 µM. The result for `Cc1cc(N[C@@H](C)C(F)(F)F)n2nc(Cc3ccc(Cl)cc3)cc2n1` [Example 1-18, 2-(4-chlorobenzyl)-5-methyl-N-[(2S)-1,1,1-trifluoropropan-2-yl]pyrazolo[1,5-a]pyrimidin-7-amine] reads 2.69 µM; that for `Cc1cc(N2CCCC(C(N)=O)C2)n2nc(Cc3ccc(Cl)cc3)cc2n1` (centres unmarked) [Example 1-19, 1-[2-(4-chlorobenzyl)-5-methylpyrazolo[1,5-a]pyrimidin-7-yl]piperidine-3-carboxamide], 10 µM; that for `Cc1cc(N[C@H](C)C(F)(F)F)n2nc(Cc3ccc(Cl)cc3)cc2n1` [Example 1-20, 2-(4-chlorobenzyl)-5-methyl-N-[(2R)-1,1,1-trifluoropropan-2-yl]pyrazolo[1,5-a]pyrimidin-7-amine], 2.15 µM.

Take `Cc1cc(N2CCC[C@@H](CO)C2)n2nc(Cc3ccc(Cl)cc3)cc2n1` [Example 1-21, {(3R)-1-[2-(4-chlorobenzyl)-5-methylpyrazolo[1,5-a]pyrimidin-7-yl]piperidin-3-yl}methanol]: the EC50 came to 1.38 µM. For `Cc1cc(N2CCCCC2CCO)n2nc(C(C)c3ccc(Cl)cc3)cc2n1` (centres unmarked) [Example 2-1, 2-(1-{2-[1-(4-chlorophenyl)ethyl]-5-methylpyrazolo[1,5-a]pyrimidin-7-yl}piperidin-2-yl)ethanol], the EC50 is 0.118 µM. The result for `Cc1cc(NC2(C)CC2)n2nc(C(C)c3ccc(Cl)cc3)cc2n1` (centres unmarked) [Example 2-2, 2-[1-(4-chlorophenyl)ethyl]-5-methyl-N-(1-methylcyclopropyl)pyrazolo[1,5-a]pyrimidin-7-amine] reads 0.435 µM; that for `Cc1cc(N2CCC(F)(F)C2)n2nc(C(C)c3ccc(Cl)cc3)cc2n1` (centres unmarked) [Example 2-3, 2-[1-(4-chlorophenyl)ethyl]-7-(3,3-difluoropyrrolidin-1-yl)-5-methylpyrazolo[1,5-a]pyrimidine], 0.508 µM; that for `Cc1cc(N2CCC(F)CC2)n2nc(C(C)c3ccc(Cl)cc3)cc2n1` (centres unmarked) [Example 2-4, 2-[1-(4-chlorophenyl)ethyl]-7-(4-fluoropiperidin-1-yl)-5-methylpyrazolo[1,5-a]pyrimidine], 0.128 µM.

Take `Cc1cc(N2CCCCC2CO)n2nc(C(C)c3ccc(Cl)cc3)cc2n1` (centres unmarked) [Example 2-5, (1-{2-[1-(4-chlorophenyl)ethyl]-5-methylpyrazolo[1,5-a]pyrimidin-7-yl}piperidin-2-yl)methanol]: the EC50 was 0.146 µM.

In the case of `Cc1cc(N2CCCC(F)C2)n2nc(C(C)c3ccc(Cl)cc3)cc2n1` (centres unmarked) [Example 2-6, 2-[1-(4-chlorophenyl)ethyl]-7-(3-fluoropiperidin-1-yl)-5-methylpyrazolo[1,5-a]pyrimidine], the EC50 worked out at 0.242 µM. For the compound `Cc1cc(N2CCCC(F)(F)C2)n2nc(C(C)c3ccc(Cl)cc3)cc2n1` (centres unmarked) [Example 2-7, 2-[1-(4-chlorophenyl)ethyl]-7-(3,3-difluoropiperidin-1-yl)-5-methylpyrazolo[1,5-a]pyrimidine], the EC50 turned out to be 0.185 µM. The result for `Cc1cc(NC(C)(C)C)n2nc(C(C)c3ccc(Cl)cc3)cc2n1` (centres unmarked) [Example 2-8, N-tert-butyl-2-[1-(4-chlorophenyl)ethyl]-5-methylpyrazolo[1,5-a]pyrimidin-7-amine] reads 0.071 µM; that for `Cc1cc(N2CCC3(CC2)COC3)n2nc(C(C)c3ccc(Cl)cc3)cc2n1` (centres unmarked) [Example 2-9, 2-[1-(4-chlorophenyl)ethyl]-5-methyl-7-(2-oxa-7-azaspiro[3.5]non-7-yl)pyrazolo[1,5-a]pyrimidine], 0.604 µM.
